From US20260091086A1, “POLYPEPTIDE COMBINATIONS AND USES THEREOF” (MEDIMMUNE LIMITED, priority 2024, published 2026)
Numbered stars: 1 amine (or outer) side, 2 acyl side, 3 side chain; on linkers, the order of the positions; unused ones are H or OH. Bridge positions count the residues as written; N and C are the ends. Square brackets hold non-standard residues; d marks the D form. Side chains are listed from the residue outwards. Ends that are not written are not given here. * marks the point of attachment. C18 diacid = O=C(O)CCCCCCCCCCCCCCCCC(=O)*; γGlu = O=C(O)[C@H](CCC(=O)[*:2])N[*:1]; αMeF = C[C@](N)(Cc1ccccc1)C(=O)O

How the values were obtained:
[1] = system: DIO Sprague-Dawley rats; test: Example 6: treatment switch / add-on study after GLP-1RA lead-in; format: in vivo, rat; details: for body weight change, % of day 0 body weight: day 30
Protocol: Study Design: Male DIO Sprague-Dawley rats were fed a high-fat diet (32.5% kcal fat, D12266B; Research Diets) for approximately 8 weeks prior to study start. Rats were dosed SC for 15 days with Vehicle (n=16) or GLP-1RA (n=32) (5 nmol/kg) once-daily (QD). Beginning on day 16 rats initially treated with Vehicle either continued with Vehicle (n=8) or were switched to LAA (7.5 nmol/kg, n=8) administration. Rats initially receiving GLP-1RA treatment either continued with GLP-1RA, were switched to LAA (7.5 nmol/kg), were switched to Vehicle, or continued with GLP-1RA with addition of LAA treatment (7.5 nmol/kg) for duration of study (day 30), with n=8/group. Body weight was measured daily through-out study. Data reported as mean±standard error of the mean (SEM); data analysis performed using GraphPad Prism In this experiment, the LAA was that of SEQ ID NO: 11, and the GLP-1R agonist was semaglutide.

[2] = biological target: T1, rat amylin receptor (calcitonin receptor plus RAMP3) (Rattus norvegicus, UniProt P32214+Q9JJ73); test: Target engagement estimate (unbound Cmax / unbound in vitro potency), amylin receptor; details: LAA 30 nmol/kg vs DACRA 10 nmol/kg
T1 construct: expressed in transfected cells; host or cells: HEK293
T1 sequence (P32214 25-516): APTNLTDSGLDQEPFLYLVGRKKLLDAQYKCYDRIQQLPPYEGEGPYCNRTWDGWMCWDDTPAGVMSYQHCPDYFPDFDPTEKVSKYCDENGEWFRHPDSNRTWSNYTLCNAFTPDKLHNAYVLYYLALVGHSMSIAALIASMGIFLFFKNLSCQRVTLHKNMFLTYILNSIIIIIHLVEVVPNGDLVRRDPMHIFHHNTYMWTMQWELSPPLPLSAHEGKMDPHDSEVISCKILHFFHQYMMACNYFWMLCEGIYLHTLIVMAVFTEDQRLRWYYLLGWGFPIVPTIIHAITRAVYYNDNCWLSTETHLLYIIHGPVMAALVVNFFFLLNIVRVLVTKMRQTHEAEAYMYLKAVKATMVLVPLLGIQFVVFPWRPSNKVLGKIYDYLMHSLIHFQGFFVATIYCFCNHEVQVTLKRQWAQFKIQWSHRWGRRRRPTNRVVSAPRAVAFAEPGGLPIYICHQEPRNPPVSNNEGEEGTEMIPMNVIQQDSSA
T1 sequence (Q9JJ73 23-147 partner): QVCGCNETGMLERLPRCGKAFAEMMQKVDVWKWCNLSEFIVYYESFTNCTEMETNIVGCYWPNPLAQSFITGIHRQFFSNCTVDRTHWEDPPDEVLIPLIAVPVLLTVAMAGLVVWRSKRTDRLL
Protocol: Target engagement was estimated in the following way for each compound. The maximum concentration (Cmax) after subcutaneous injection was measured in separate rat pharmacokinetic studies and was dose-adjusted to the tested dose levels when appropriate, assuming dose linearity. Plasma protein binding was determined in vitro using 3B Pharmaceutical's Escalate Equilibrium Shift Assay or an in-house Surface Plasmon Resonance (SPR) assay. Peptide in vitro potency was determined via HTRF CAMP accumulation assay using HEK293 cells recombinantly expressing the rat calcitonin receptor or rat amylin receptor (calcitonin receptor plus RAMP3) in saline buffer containing 0.1% bovine serum albumin. The in vitro potencies (IC50s) for amylin and calcitonin were adjusted to unbound values by taking into account the albumin concentration in the assay and fraction unbound data, according to an established method (Wan H and Bergström F (2007), High Throughput Screening of Drug-Protein Binding in Drug Discovery, Journal of Liquid Chromatography & Related Technologies, 30:5, 681-700; doi: 10.1080/10826070701190989). Finally, the target engagement was calculated as the unbound Cmax divided by the unbound IC50, both for amylin and calcitonin. […] Uncertainty of parameter estimates was determined by bootstrapping, sampling single measurements randomly with replacement within each experiment (N=500). […]

[3] = system: DIO Sprague-Dawley rats; test: Example 3: 28-day body weight study in DIO rats; format: in vivo, rat; details: day 28; LAA 7.5 nmol/kg SC QD
Protocol: Study Design: Male DIO Sprague-Dawley rats were fed a high-fat diet (32.5% kcal fat, D12266B; Research Diets) for approximately 8 weeks prior to study start. Rats were dosed once daily SC for 28 days with Vehicle, GLP-1/GCG (1.5 nmol/kg or 5 nmol/kg), LAA (7.5 nmol/kg) or a combination of GLP-1/GCG and LAA (1.5 and 7.5 nmol/kg, or 5 nmol/kg and 7.5 nmol/kg, respectively) with an n=6/group. Body weight was monitored daily throughout the study. Data reported as mean±standard error of the mean (SEM); data analysis performed using GraphPad Prism-statistical analysis performed using One-way ANOVA with Tukey ad hoc analysis (*p<0.05, **p<0.01, ***0<0.001, ****p<0.0001). In this experiment, the LAA was that of SEQ ID NO: 11, and the GLP-1/GCG dual-agonist was cotadutide.

[4] = system: chow fed lean rats; test: Example 3: acute gastric emptying by X-ray fluoroscopic quantification; format: in vivo, rat; details: acute SC
Protocol: Study design: DIO male pair-housed rats fed a 32.5% high-fat diet (D12266B) for 7 weeks reached a mean body weight (BW) of ˜595 g. Rats were dosed SC daily for 28 days with vehicle (Vh), GLP-1/GCG dual agonist (1.5 or 5 nmol/kg), LAA (2.5 or 7.5 nmol/kg), or combination (1.5+2.5 nmol/kg, 1.5+7.5 nmol/kg, 5+2.5 nmol/kg, or 5+7.5 nmol/kg, respectively). Food intake (FI) and BW were measured daily. In chow fed lean rats, gastric emptying (GE) was measured via X-ray fluoroscopic quantification following SC injections of Vh, GLP-1/GCG dual agonist at 1, 3, or 10 nmol/kg or LAA at 1, 3, or 10 nmol/kg. In a subsequent acute GE study, lean rats received a single dose of Vh, GLP-1/GCG dual agonist (2 nmol/kg), LAA (2 nmol/kg) or GLP-1/GCG dual agonist+LAA combination (2+2 nmol/kg). In this experiment, the LAA was that of SEQ ID NO: 11, and the GLP-1/GCG dual-agonist was cotadutide.

[5] = end of study, after initial GLP-1RA: GLP-1RA continued, switched to LAA, or Combination

What does the source list for “K(γE-γE-C18diacid)[CNTATC]ATQRLANFLRHSSNN(αMePhe)GPILPPTEVGSNTY-amide (K([γGlu-γGlu-C18 diacid])CNTATCATQRLANFLRHSSNN[αMeF]GPILPPTEVGSNTY-NH2; disulfide 2-7) [LAA]”?
total lean mass at the end of the study ([1]; FIG. 5E): trend towards the animals switching to LAA therapy preserving the most lean mass; fasting leptin levels at the end of the study ([1]; compared to discontinuing therapy at day 15, FIG. 5F): significantly reduced; body weight change, % of day 0 body weight ([1]; switched from GLP-1RA to LAA 7.5 nmol/kg on day 16): −3.4%; body weight change, % of day 0 body weight ([1]; switched from Vehicle to LAA 7.5 nmol/kg on day 16): +1.1%; Fat [1, 5]: 103.70 g; Fat, Δ from Control [1, 5]: 41.95 g; change in body weight normalized to Vehicle ([1]; end of study, switched from GLP-1RA to LAA): −12%; change in body weight normalized to Vehicle ([1]; end of study, switched from VH to LAA): −7.1%; Fat, Δ from Vehicle ([1]; end of study, vs group switched from GLP-1RA to Vehicle): 27.21 g; amylin receptor engagement, fold more than DACRA [2]: ~28 fold; mean change in body weight normalized to Vehicle [3]: −13.7%; GE AUC as % of Vehicle ([4]; 1 nmol/kg): 101%; GE AUC as % of Vehicle ([4]; 3 nmol/kg): 34%; GE AUC as % of Vehicle ([4]; 10 nmol/kg): 8%
